tested on: IL-2 production; assay: Inhibition of IL-2 production in PHA-activated Jurkat cells (ELISA); assay type: cell-based; settings: Homo sapiens, Jurkat, 20 h, PHA 2.5 μg/mL, IL-2 ELISA
Description: Jurkat cells were placed in a 96 well plate (0.5 million cells per well in 1% FBS medium) then a test compound of this invention was added at different concentrations. After 10 minutes, the cells were activated with PHA (final concentration 2.5 μg/mL) and incubated for 20 hours at 37° C. under CO2. The final volume was 200 μL. Following incubation, the cells were centrifuged and the supernatants collected and stored at −70° C. prior to assaying for IL-2 production. A commercial ELISA kit (IL-2 Eli-pair, Diaclone Research, Besancon, France) was used to detect production of IL-2, from which dose response curves were obtained. The IC50 value was calculated as the concentration at which 50% of maximum IL-2 production after stimulation was inhibited versus a non-stimulation control.

Compound | IC50 [nM]
O=C(Nc1c(F)cccc1F)c1nc2c(s1)-c1ccccc1CCC2 [Compound 31] | > 1000
COc1ccc2c(c1)-c1sc(NC(=O)c3ccncc3F)nc1CCC2 [Compound 3] | > 1000
COc1ccc2c(c1)-c1sc(C(=O)Nc3ccncc3C)nc1CCC2 [Compound 10] | 250 to 500
O=C(Nc1nc2c(s1)-c1ccsc1CCC2)c1c(F)cccc1F [Compound 85] | > 1000
O=C(Nc1nc2c(=O)oc3ccc(O)cc3c2s1)c1c(F)cccc1F [Compound 15] | > 1000
O=C(Nc1nc2c(s1)-c1cc(-c3ccccn3)ccc1CCC2)c1c(F)cccc1F [Compound 82] | > 1000
N#Cc1ccc2c(c1)-c1sc(NC(=O)c3c(F)cccc3F)nc1CCC2 [Compound 80] | > 1000
Fc1cccc(F)c1CNc1ccc2c(c1)CCCc1cnc(-c3cccnc3)nc1-2 [Compound 104] | > 1000
COc1cccc2c1CCCc1nc(NC(=O)c3c(F)cccc3F)sc1-2 [Compound 12] | ≤ 30
COc1ccc(-c2ccc3c(c2)-c2sc(C(=O)Nc4c(F)cccc4F)nc2CCC3)cn1 [Compound 121] | 250 to 500
O=C(Nc1ccc2c(c1)CCCc1cnc(-c3ccccn3)nc1-2)c1c(F)cccc1F [Compound 106] | 500 to 1000
COc1ccc2c(c1)CCCc1c-2ncc(NC(=O)c2c(F)cccc2F)[n+]1[O-] [Compound 97] | 500 to 1000
Cc1nc(-c2ccc3c(c2)CCCc2nc(NC(=O)c4c(F)cccc4F)sc2-3)no1 [Compound 60] | 30 to 100
CN1Cc2ccc(Br)cc2-c2sc(C(=O)Nc3c(F)cccc3F)nc2C1=O [Compound 140] | > 1000
O=C(Nc1c(F)cccc1F)c1nc2c(s1)-c1cc(CN3CCOCC3)ccc1CCC2 [Compound 42] | > 1000
COc1cccc2c1CCCc1nc(C(=O)Nc3ccncc3C)sc1-2 [Compound 11] | > 1000
O=C(Nc1c(F)cccc1F)c1nc2c(s1)-c1cc(OC(=O)n3ccnc3)ccc1CCC2 [Compound 111] | 250 to 500
N#Cc1cc2c(s1)CCCc1nc(NC(=O)c3c(F)cccc3F)sc1-2 [Compound 86] | > 1000
COc1ccc2c(c1)CCCCc1nc(NC(=O)c3c(F)cccc3F)ncc1-2 [Compound 98] | > 1000
COc1ccc2c(c1)-c1sc(C(=O)Nc3c(F)cccc3F)nc1CCO2 [Compound 33] | 100 to 250
CN1Cc2ccc(Br)cc2-c2sc(NC(=O)c3c(F)cccc3F)nc2C1 [Compound 138] | 250 to 500
COc1ccc2c(c1)-c1sc(NC(=O)Nc3c(F)cccc3F)nc1CCC2 [Compound 154] | 500 to 1000
O=C(Nc1c(F)cccc1F)c1nc2c(s1)-c1cc(Br)ccc1CCC2 [Compound 18] | 30 to 100
CC/N=C(/Nc1c(F)cccc1F)c1nc2c(s1)-c1cc(OC)ccc1CCC2 [Compound 149] | 100 to 250
COc1ccc2c(c1)-c1sc(C(=N)Nc3c(F)cccc3F)nc1CCC2 [Compound 152] | 500 to 1000
Cc1csc(-c2cccc3c2CCCc2nc(NC(=O)c4c(F)cccc4F)sc2-3)n1 [Compound 71] | 250 to 500
Fc1cccc(F)c1CN(Cc1c(F)cccc1F)c1ccc2c(c1)CCCc1cnc(-c3cccnc3)nc1-2 [Compound 103] | > 1000

Compound | IC50 [nM]
COc1ccc2c(c1)-c1sc(/C(=N\O)Nc3c(F)cccc3F)nc1CCC2 [Compound 147] | 500 to 1000
COC(=O)c1ccc2c(c1)CCCc1nc(NC(=O)c3c(F)cccc3F)sc1-2 [Compound 73] | 30 to 100
CN(C)c1cccc(F)c1C(=O)Nc1nc2c(s1)-c1cc(C#N)ccc1CCC2 [Compound 81] | 500 to 1000
COc1ccc2c(c1)-c1sc(C(=O)Nc3c(F)cccc3F)nc1CCC2 [Compound 5] | ≤ 30
O=C(Nc1nc2c(s1)-c1ccc(-c3ncco3)cc1CCC2)c1c(F)cccc1F [Compound 76] | 30 to 100
O=C(Nc1c(F)cccc1F)c1nc2c(s1)-c1cc(-c3cncnc3)ccc1CCC2 [Compound 124] | 30 to 100
O=C(Nc1ccc2c(c1)CCCc1cnc(-c3cccnc3)nc1-2)c1c(F)cccc1F [Compound 99] | 30 to 100
COc1cccc2c1CCCc1nc(NC(=O)c3c(F)cccc3F)ncc1-2 [Compound 91] | 100 to 250
O=C(Nc1c(F)cccc1F)c1nc2c(s1)-c1nc(-c3cccnc3)sc1CCC2 [Compound 133] | 30 to 100
O=C(Nc1c(F)cccc1F)c1nc2c(s1)-c1cc(-c3nnn[nH]3)ccc1CCC2 [Compound 40] | > 1000
O=C(Nc1c(F)cccc1F)c1nc2c(s1)-c1cc(-c3cccnc3F)ccc1CCC2 [Compound 122] | ≤ 30
CN1Cc2ccc(Br)cc2-c2sc(NCc3c(F)cccc3F)nc2C1 [Compound 137] | > 1000
Cn1nnnc1-c1ccc2c(c1)CCCc1nc(NC(=O)c3c(F)cccc3F)sc1-2 [Compound 78] | ≤ 30
COc1cccc2c1CCCc1nc(NC(=O)c3ccncc3C)ncc1-2 [Compound 92] | > 1000
O=C(Nc1nc2c(s1)-c1ccc(-c3nccs3)cc1CCC2)c1c(F)cccc1F [Compound 75] | 100 to 250
O=C(Nc1ccc2c(c1)CCCc1cnc(-c3ccncc3)nc1-2)c1c(F)cccc1F [Compound 108] | 30 to 100
Cn1nnc(-c2ccc3c(c2)-c2sc(C(=O)Nc4c(F)cccc4F)nc2CCC3)n1 [Compound 41] | 250 to 500
O=C(Nc1nc2c(s1)-c1cc(-c3nccs3)ccc1CCC2)c1c(F)cccc1F [Compound 83] | 100 to 250
O=C(Nc1c(F)cccc1F)c1nc2c(s1)-c1cc(-c3cn[nH]c3)ccc1CCC2 [Compound 128] | 100 to 250
COc1ncccc1-c1ccc2c(c1)-c1sc(C(=O)Nc3c(F)cccc3F)nc1CCC2 [Compound 123] | ≤ 30
COc1ccc2c(c1)-c1sc(/C(=N/c3c(F)cccc3F)SC)nc1CCC2 [Compound 144] | > 1000
O=C(Nc1nc2c(s1)-c1cc(Br)ccc1CCC2)c1c(F)cccc1F [Compound 17] | > 1000
Nc1ccc(-c2ccc3c(c2)-c2sc(C(=O)Nc4c(F)cccc4F)nc2CCC3)cn1 [Compound 115] | 30 to 100
Fc1cccc(F)c1CNc1nc2c(s1)-c1cccc(-c3cnco3)c1CCC2 [Compound 69] | 250 to 500
O=C(Nc1nc2c(s1)-c1cc(O)ccc1CCC2)c1c(F)cccc1F [Compound 79] | 250 to 500
O=C(Nc1c(F)cccc1F)c1nc2c(s1)-c1cc(-c3ccc(F)nc3)ccc1CCC2 [Compound 120] | 250 to 500
O=C1OCc2ccc(Br)cc2-c2sc(NC(=O)c3c(F)cccc3F)nc21 [Compound 139] | > 1000

Compound | IC50 [nM]
Cn1cncc1-c1ccc2c(c1)-c1sc(C(=O)Nc3c(F)cccc3F)nc1CCC2 [Compound 129] | ≤ 30
O=C(Nc1c(F)cccc1F)c1nc2c(s1)-c1cc(-c3ccnc(F)c3)ccc1CCC2 [Compound 118] | 100 to 250
O=C(Nc1c(F)cccc1F)c1nc2c(s1)-c1cc(-c3ccc(O)nc3)ccc1CCC2 [Compound 117] | 100 to 250
O=Cc1cccc2c1CCCc1nc(NC(=O)c3c(F)cccc3F)sc1-2 [Compound 67] | 500 to 1000
O=C(Nc1nc2c(s1)-c1ccccc1CCC2)c1c(F)cccc1F [Compound 16] | 250 to 500
COc1ccc2c(c1)-c1cnc(NC(=O)c3ccncc3C)nc1CCO2 [Compound 95] | > 1000
COc1cccc2c1oc(=O)c1nc(NC(=O)c3c(F)cccc3F)sc12 [Compound 2] | > 1000
O=C(Nc1c(F)cccc1F)c1nc2c(s1)-c1cc(-c3cnco3)ccc1CCC2 [Compound 19] | ≤ 30
Fc1cccc(F)c1NC(=S)c1nc2c(s1)-c1cc(-c3cnco3)ccc1CCC2 [Compound 148] | 30 to 100
O=C(Nc1nc2c(s1)-c1cc(Br)sc1CCC2)c1c(F)cccc1F [Compound 84] | > 1000
Cn1nnnc1-c1ccc2c(c1)-c1sc(C(=O)Nc3c(F)cccc3F)nc1CCC2 [Compound 39] | ≤ 30
COc1cccc2c1CCCc1nc(C(=O)Nc3c(F)cccc3F)sc1-2 [Compound 6] | 250 to 500
COc1ccc2c(c1)-c1cnc(NC(=O)c3c(F)cccc3F)nc1CCC2 [Compound 93] | 500 to 1000
COc1cc(-c2ccc3c(c2)-c2sc(C(=O)Nc4c(F)cccc4F)nc2CCC3)ccn1 [Compound 119] | 100 to 250
COC(=O)c1ccc2c(c1)-c1sc(C(=O)Nc3c(F)cccc3F)nc1CCC2 [Compound 38] | ≤ 30
O=C(Nc1nc2c(s1)-c1nc(-c3cccnc3)sc1CCC2)c1c(F)cccc1F [Compound 88] | 500 to 1000
O=C(Nc1ccc2c(c1)CCCc1sc(-c3cccnc3)nc1-2)c1c(F)cccc1F [Compound 155] | 30 to 100
O=C(Nc1nc2c(s1)-c1cccc(O)c1CCC2)c1c(F)cccc1F [Compound 51] | 30 to 100
COc1ccc2c(c1)CCCc1nc(NC(=O)c3c(F)cccc3F)cnc1-2 [Compound 96] | 250 to 500
O=C(Nc1c(F)cccc1F)c1nc2c(s1)-c1cc(-c3ccccn3)ccc1CCC2 [Compound 37] | ≤ 30
O=C(Nc1nc2c(s1)-c1ccncc1CCC2)c1c(F)cccc1F [Compound 87] | 30 to 100
COc1ccc2c(c1)-c1sc(NC(=O)c3c(F)cccc3F)nc1CCO2 [Compound 4] | > 1000
COc1ccc2c(c1)-c1sc(NC(=O)c3ccncc3F)nc1CCO2 [Compound 9] | > 1000
O=C(Nc1nc2c(s1)-c1ccc(-c3nnn[nH]3)cc1CCC2)c1c(F)cccc1F [Compound 77] | > 1000
O=C(Nc1ncc2c(n1)CCCc1cnc(-c3cccnc3)nc1-2)c1c(F)cccc1F [Compound 89] | 500 to 1000

same assay, conditions: Homo sapiens, PHA 2.5 μg/mL, 20 hours, IL-2 ELISA

Compound | IC50 [nM]
O=C(Nc1c(F)ccc([N+](=O)[O-])c1F)c1nc2c(s1)-c1cc([N+](=O)[O-])ccc1CCC2 [Compound 36] | 500 to 1000
O=C(Nc1c(F)ccc([N+](=O)[O-])c1F)c1nc2c(s1)-c1ccc([N+](=O)[O-])cc1CCC2 [Compound 35] | 100 to 250

— patent publication US8779154B2, “Fused ring compounds for inflammation and immune-related uses” (priority 2006, dated 2014)
